Data on four molecules can be found in PubChem BioAssay (NCI).

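Each compound was tested at five concentrations against cells in 96-well plates for 48 hours. TGI denotes the concentration required for complete inhibition of growth.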 A value given as a limit tells only on which side of the number the result lay.

For the first assay, the system named is HOP-92 NSCLC. Put plainly: NCI anticancer screen, dose series, 48 h.
In turn, `COc1ccc(C(=O)/C=C/c2ccc(O)c(O)c2)c(OC)c1` returned a TGI greater than 100 µM.

In turn, `CN(C)CCCN1c2ccccc2Sc2ccc3ccccc3c21` gave a TGI of 21 µM.

Another assay deals with M14 melanoma. Nature of the assay: NCI anticancer screen, dose series, 48 h.
With `C[C@]12CC[C@@H]3c4cc(OCC(F)(F)F)c(O)cc4CC[C@H]3[C@@H]1CC[C@@H]2O`, the TGI was 16.8 µM.

Turning to `CN(C)c1ccc(C(Cc2ccccc2)C2NC(=S)NC2=O)cc1` (centres undefined), the TGI is greater than 100 µM.

Regarding `COc1ccc(C(=O)/C=C/c2ccc(O)c(O)c2)c(OC)c1`, the TGI came to 19 µM.

Take `CN(C)CCCN1c2ccccc2Sc2ccc3ccccc3c21`: the TGI amounted to 3.3 µM.

Another assay concerns SK-MEL-5 melanoma. Nature of the assay: NCI anticancer screen, dose series, 48 h.
`C[C@]12CC[C@@H]3c4cc(OCC(F)(F)F)c(O)cc4CC[C@H]3[C@@H]1CC[C@@H]2O` came in with a TGI of 15.4 µM.

In the case of `CN(C)c1ccc(C(Cc2ccccc2)C2NC(=S)NC2=O)cc1` (centres undefined), the TGI was greater than 100 µM.

Consider `COc1ccc(C(=O)/C=C/c2ccc(O)c(O)c2)c(OC)c1`, for which the TGI stood at 13.3 µM.

In the case of `CN(C)CCCN1c2ccccc2Sc2ccc3ccccc3c21`, the TGI was determined as 8.21 µM.

A further assay deals with NCI-H226 lung. Put plainly: NCI anticancer screen, dose series, 48 h.
With `C[C@]12CC[C@@H]3c4cc(OCC(F)(F)F)c(O)cc4CC[C@H]3[C@@H]1CC[C@@H]2O`, the TGI was determined as 24.7 µM.

`CN(C)c1ccc(C(Cc2ccccc2)C2NC(=S)NC2=O)cc1` (centres undefined) came in with a TGI greater than 100 µM.

Turning to `COc1ccc(C(=O)/C=C/c2ccc(O)c(O)c2)c(OC)c1`, the TGI amounted to 22.3 µM.

Molecule `CN(C)CCCN1c2ccccc2Sc2ccc3ccccc3c21` came in with a TGI of 19 µM.

In a further assay the test system is NCI-H23 lung. Nature of the assay: NCI anticancer screen, dose series, 48 h.
On to `C[C@]12CC[C@@H]3c4cc(OCC(F)(F)F)c(O)cc4CC[C@H]3[C@@H]1CC[C@@H]2O`, for which the TGI came to 19.3 µM.

Molecule `CN(C)c1ccc(C(Cc2ccccc2)C2NC(=S)NC2=O)cc1` (centres undefined) came in with a TGI greater than 100 µM.

The molecule `COc1ccc(C(=O)/C=C/c2ccc(O)c(O)c2)c(OC)c1` had a TGI of 18.3 µM.

`CN(C)CCCN1c2ccccc2Sc2ccc3ccccc3c21` showed a TGI of 28.2 µM.

The subject of a further assay is UACC-62 melanoma. Nature of the assay: NCI anticancer screen, dose series, 48 h.
The molecule `C[C@]12CC[C@@H]3c4cc(OCC(F)(F)F)c(O)cc4CC[C@H]3[C@@H]1CC[C@@H]2O` showed a TGI of 17.3 µM.

As to `CN(C)c1ccc(C(Cc2ccccc2)C2NC(=S)NC2=O)cc1` (centres undefined), the TGI is greater than 100 µM.

Molecule `COc1ccc(C(=O)/C=C/c2ccc(O)c(O)c2)c(OC)c1` came in with a TGI of 14.4 µM.

`CN(C)CCCN1c2ccccc2Sc2ccc3ccccc3c21` showed a TGI of 9.62 µM.

The next assay deals with IGROV1 ovarian. Nature of the assay: NCI anticancer screen, dose series, 48 h.
With `C[C@]12CC[C@@H]3c4cc(OCC(F)(F)F)c(O)cc4CC[C@H]3[C@@H]1CC[C@@H]2O`, the TGI worked out at 23.8 µM.

In the case of `CN(C)c1ccc(C(Cc2ccccc2)C2NC(=S)NC2=O)cc1` (centres undefined), the TGI was greater than 100 µM.

As to `COc1ccc(C(=O)/C=C/c2ccc(O)c(O)c2)c(OC)c1`, the TGI was greater than 100 µM.

On to `CN(C)CCCN1c2ccccc2Sc2ccc3ccccc3c21`, for which the TGI was 23.4 µM.

The next assay deals with MOLT-4 leukemia. Nature of the assay: NCI anticancer screen, dose series, 48 h.
As for `C[C@]12CC[C@@H]3c4cc(OCC(F)(F)F)c(O)cc4CC[C@H]3[C@@H]1CC[C@@H]2O`, the TGI stood at 18.9 µM.

In turn, `CN(C)c1ccc(C(Cc2ccccc2)C2NC(=S)NC2=O)cc1` (centres undefined) gave a TGI greater than 100 µM.

In turn, `COc1ccc(C(=O)/C=C/c2ccc(O)c(O)c2)c(OC)c1` showed a TGI greater than 38.9 µM.

As to `CN(C)CCCN1c2ccccc2Sc2ccc3ccccc3c21`, the TGI was found to be 10.1 µM.

A further assay has as its system MCF7 breast. Put plainly: NCI anticancer screen, dose series, 48 h.
The molecule `C[C@]12CC[C@@H]3c4cc(OCC(F)(F)F)c(O)cc4CC[C@H]3[C@@H]1CC[C@@H]2O` yielded a TGI of 17.3 µM.

With `CN(C)c1ccc(C(Cc2ccccc2)C2NC(=S)NC2=O)cc1` (centres undefined), the TGI is greater than 100 µM.

`COc1ccc(C(=O)/C=C/c2ccc(O)c(O)c2)c(OC)c1`: the TGI was 14.1 µM.

In turn, `CN(C)CCCN1c2ccccc2Sc2ccc3ccccc3c21` returned a TGI of 14.9 µM.

A further assay relates to COLO 205 colon. Nature of the assay: NCI anticancer screen, dose series, 48 h.
`C[C@]12CC[C@@H]3c4cc(OCC(F)(F)F)c(O)cc4CC[C@H]3[C@@H]1CC[C@@H]2O` showed a TGI of 28.2 µM.

`CN(C)c1ccc(C(Cc2ccccc2)C2NC(=S)NC2=O)cc1` (centres undefined): the TGI is greater than 100 µM.

On to `COc1ccc(C(=O)/C=C/c2ccc(O)c(O)c2)c(OC)c1`, for which the TGI is 28.8 µM.

With `CN(C)CCCN1c2ccccc2Sc2ccc3ccccc3c21`, the TGI came out at 10 µM.

A further assay relates to HCT-15 colon. Nature of the assay: NCI anticancer screen, dose series, 48 h.
For `C[C@]12CC[C@@H]3c4cc(OCC(F)(F)F)c(O)cc4CC[C@H]3[C@@H]1CC[C@@H]2O`, the TGI is 15.2 µM.

In the case of `CN(C)c1ccc(C(Cc2ccccc2)C2NC(=S)NC2=O)cc1` (centres undefined), the TGI was greater than 100 µM.

Molecule `COc1ccc(C(=O)/C=C/c2ccc(O)c(O)c2)c(OC)c1` displayed a TGI of 24.3 µM.

Regarding `CN(C)CCCN1c2ccccc2Sc2ccc3ccccc3c21`, the TGI was 19.2 µM.

For the next assay, the system named is HCC-2998 colon. Nature of the assay: NCI anticancer screen, dose series, 48 h.
In the case of `C[C@]12CC[C@@H]3c4cc(OCC(F)(F)F)c(O)cc4CC[C@H]3[C@@H]1CC[C@@H]2O`, the TGI is 16.9 µM.

For `CN(C)c1ccc(C(Cc2ccccc2)C2NC(=S)NC2=O)cc1` (centres undefined), the TGI is greater than 100 µM.

On to `COc1ccc(C(=O)/C=C/c2ccc(O)c(O)c2)c(OC)c1`, for which the TGI was determined as 3.4 µM.

As for `CN(C)CCCN1c2ccccc2Sc2ccc3ccccc3c21`, the TGI worked out at 3.04 µM.

A further assay concerns HCT-116 colon. Put plainly: NCI anticancer screen, dose series, 48 h.
In turn, `C[C@]12CC[C@@H]3c4cc(OCC(F)(F)F)c(O)cc4CC[C@H]3[C@@H]1CC[C@@H]2O` had a TGI of 16.7 µM.

As for `CN(C)c1ccc(C(Cc2ccccc2)C2NC(=S)NC2=O)cc1` (centres undefined), the TGI was greater than 100 µM.

In turn, `COc1ccc(C(=O)/C=C/c2ccc(O)c(O)c2)c(OC)c1` displayed a TGI of 16.1 µM.

In turn, `CN(C)CCCN1c2ccccc2Sc2ccc3ccccc3c21` showed a TGI of 22.9 µM.

A further assay concerns MALME-3M melanoma. Nature of the assay: NCI anticancer screen, dose series, 48 h.
Molecule `C[C@]12CC[C@@H]3c4cc(OCC(F)(F)F)c(O)cc4CC[C@H]3[C@@H]1CC[C@@H]2O` gave a TGI of 19 µM.

In turn, `CN(C)c1ccc(C(Cc2ccccc2)C2NC(=S)NC2=O)cc1` (centres undefined) registered a TGI greater than 100 µM.

`COc1ccc(C(=O)/C=C/c2ccc(O)c(O)c2)c(OC)c1` registered a TGI of 21.8 µM.

The molecule `CN(C)CCCN1c2ccccc2Sc2ccc3ccccc3c21` yielded a TGI of 21.6 µM.

The subject of a further assay is RPMI-8226 leukemia. Put plainly: NCI anticancer screen, dose series, 48 h.
In the case of `C[C@]12CC[C@@H]3c4cc(OCC(F)(F)F)c(O)cc4CC[C@H]3[C@@H]1CC[C@@H]2O`, the TGI is 23.1 µM.

As to `CN(C)c1ccc(C(Cc2ccccc2)C2NC(=S)NC2=O)cc1` (centres undefined), the TGI was greater than 100 µM.

For the molecule `COc1ccc(C(=O)/C=C/c2ccc(O)c(O)c2)c(OC)c1`, the TGI came out at 15.8 µM.

Regarding `CN(C)CCCN1c2ccccc2Sc2ccc3ccccc3c21`, the TGI was determined as 7.45 µM.

In another assay the test system is HL-60(TB) leukemia. Nature of the assay: NCI anticancer screen, dose series, 48 h.
`C[C@]12CC[C@@H]3c4cc(OCC(F)(F)F)c(O)cc4CC[C@H]3[C@@H]1CC[C@@H]2O`: the TGI stood at 10.7 µM.
